Consider 4 compounds from patent publication US5280027A, “Anti-tumor compounds” (Imperial Chemical Industries PLC, priority 1990, dated 1994).

Each structure is given as a SMILES string. Like-named read-outs stand apart in the source and are kept apart here.

The conditions of data set [1]: cited from earlier work.
Data set [2] relates to human breast, ovarian and liver cancer. The note with it: clinical; cited from earlier work.
For data set [3], the system named is L1210 cell line. Nature of the data set: Test (b): inhibition of growth of the leukaemia cell line L1210 in cell culture. The class given is cell-based. The note with it: Mus musculus. From the text:
(b) An assay which determines the ability of a test compound to inhibit the growth of the leukaemia cell line L1210 in cell culture. The test is similar to that described in UK Patent Specification No. 2065653B and has been described by Jones et al., J. Med. Chem., 1985, 28, 1468;

In data set [4] the test system is MCF-7 cell line. Nature of the data set: Test (c): inhibition of growth of the human breast cancer cell line MCF-7 in cell culture. The note with it: MCF7, MCF-7 growth. The class given is cell-based. From the text: (c) An assay which determines the ability of a test compound to inhibit the growth of the human breast cancer cell line MCF-7 in cell culture. The test is similar to that described by Lippman et al. (Cancer Res., 1976, 36, 4595); and […]

Data set [5] concerns the target T1, thymidylate synthase (Mus musculus, UniProt P07607).
T1 construct: obtained in partially purified form from L1210 mouse leukaemia cells; endogenous in cells; host or cells: L1210 mouse leukaemia cells (enzyme partially purified)
Nature of the data set: Test (a): in vitro inhibition of the enzyme thymidylate synthase (partially purified from L1210 mouse leukaemia cells). The class given is biochemical. From the text:
(a) An in vitro assay which determines the ability of a test compound to inhibit the enzyme thymidylate synthase. Thymidylate synthase was obtained in partially purified form from L1210 mouse leukaemia cells and utilised using the procedures described by Jackman et al. (Cancer Res., 1986, 46, 2810 and Sikora et al., Biochem. Pharmacol. 1988, 37, 4047);

The mark [6] stands for this setting: Test (a), thymidylate synthase, read-out: IC50.

T1 sequence (P07607 whole entry): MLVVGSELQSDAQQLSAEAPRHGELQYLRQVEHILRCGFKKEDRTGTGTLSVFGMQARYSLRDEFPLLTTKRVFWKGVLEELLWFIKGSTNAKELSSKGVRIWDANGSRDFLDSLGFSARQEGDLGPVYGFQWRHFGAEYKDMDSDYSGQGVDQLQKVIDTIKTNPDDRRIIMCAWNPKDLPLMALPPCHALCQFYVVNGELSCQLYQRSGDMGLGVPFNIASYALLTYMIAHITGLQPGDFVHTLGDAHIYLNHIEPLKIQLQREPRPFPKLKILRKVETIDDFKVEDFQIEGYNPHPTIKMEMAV

Regarding `C#CCN(Cc1ccc2nc(N)[nH]c(=O)c2c1)c1ccc(C(=O)N[C@@H](CCC(=O)O)C(=O)O)cc1` [CB3717], the “toxicity in humans, particularly in relation to the liver and kidney” value in data set [1] was “symptoms of toxicity in humans, particularly in relation to the liver and kidney”. For the same compound, the “activity against human breast, ovarian and liver cancer” value in data set [2] is on record as “promising activity”.
Usually IC50 stands for the concentration that gives 50% inhibition. In the case of `C#CCN(Cc1ccc2nc(C)[nH]c(=O)c2c1)c1ccc(C(=O)NC(c2ccccc2)c2ccccc2)cc1` [Example 7, N-diphenylmethyl-p-[N-(2-methyl-4-oxo-3,4-dihydroquinazolin-6-ylmethyl)-N-(prop-2-ynyl)amino]benzamide], the values for the concentration for half-maximal inhibition (IC50) in data set [3], in data set [4] and in data set [5] (setting [6]) were approximately 7 µM, approximately 1.5 µM and approximately 2 µM, respectively.
`C#CCN(Cc1ccc2nc(C)[nH]c(=O)c2c1)c1ccc(C(=O)NC(C(=O)NS(=O)(=O)c2ccc(OC)cc2)c2cccc([N+](=O)[O-])c2)cc1` (centres unmarked) [Example 10, N-[p-[N-(2-methyl-4-oxo-3,4-dihydroquinazolin-6-ylmethyl)-N-(prop-2-ynyl)amino]benzoyl]-(3-nitrophenyl)glycine N-(4-methoxyphenylsulphonyl)amide]: the results for the IC50 in data set [3], in data set [4] and in data set [5] were approximately 25 µM, approximately 1 µM and approximately 0.01 µM, respectively.
As for `C#CCN(Cc1cc2c(=O)[nH]c(C)nc2cc1C)c1ccc(C(=O)NC(CO)c2cccc([N+](=O)[O-])c2)cc1` (centres unmarked) [Example 14, compound no. 2, p-[N-(2,7-dimethyl-4-oxo-3,4-dihydroquinazolin-6-ylmethyl)-N-(prop-2-ynyl)amino]-N-[2-hydroxy-1-(3-nitrophenyl)ethyl]benzamide], the IC50 in data set [3] is approximately 3.4 µM; in data set [4] it was approximately 0.1 µM; in data set [5] (setting [6]), approximately 0.02 µM.
